The results in this text go back to patent US20200061062A1, “INHIBITORS OF HUMAN PHOSPHATIDYLINOSITOL 3-KINASE DELTA” (ICOS Corporation, priority 2000, published 2020).

Experiment [1] addresses T1, PI3Kβ (Homo sapiens, UniProt P42338).
T1 construct: His tag (pFastbac HTa vector) (N); FLAG (N); made in house; host or cells: Sf21 insect cells (baculovirus)
Nature of the experiment: Biochemical assay of PI3K potency and selectivity using 20 μM ATP, Beta. As to conditions: for Beta/Delta Ratio / remaining activity at 100 µM: 20 μM ATP; for Beta/Delta Ratio: ratio of IC50 values, > = hypothetical ratio with 100 μM substituted for the missing IC50; for remaining activity at 100 µM: read-out: Beta: percent activity remaining at 100 μM, 100 μM compound did not inhibit by at least 50%. An outline of the steps:
(§1)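 Radioactive phosphate transfer from γ-[32P]ATP onto PIP2/PS liposomes was measured in 20 mM HEPES, pH 7.4, at 20 μM ATP. The 3× substrate stock contained […] and 6 μM PIP2/PS.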

The target in a further experiment is T2, PI3Kα (Homo sapiens, UniProt P42336).
T2 construct: His tag (pFastbac HTb vector) (N); FLAG; made in house; host or cells: Sf21 insect cells (baculovirus)
T2 sequence (P42336 whole entry): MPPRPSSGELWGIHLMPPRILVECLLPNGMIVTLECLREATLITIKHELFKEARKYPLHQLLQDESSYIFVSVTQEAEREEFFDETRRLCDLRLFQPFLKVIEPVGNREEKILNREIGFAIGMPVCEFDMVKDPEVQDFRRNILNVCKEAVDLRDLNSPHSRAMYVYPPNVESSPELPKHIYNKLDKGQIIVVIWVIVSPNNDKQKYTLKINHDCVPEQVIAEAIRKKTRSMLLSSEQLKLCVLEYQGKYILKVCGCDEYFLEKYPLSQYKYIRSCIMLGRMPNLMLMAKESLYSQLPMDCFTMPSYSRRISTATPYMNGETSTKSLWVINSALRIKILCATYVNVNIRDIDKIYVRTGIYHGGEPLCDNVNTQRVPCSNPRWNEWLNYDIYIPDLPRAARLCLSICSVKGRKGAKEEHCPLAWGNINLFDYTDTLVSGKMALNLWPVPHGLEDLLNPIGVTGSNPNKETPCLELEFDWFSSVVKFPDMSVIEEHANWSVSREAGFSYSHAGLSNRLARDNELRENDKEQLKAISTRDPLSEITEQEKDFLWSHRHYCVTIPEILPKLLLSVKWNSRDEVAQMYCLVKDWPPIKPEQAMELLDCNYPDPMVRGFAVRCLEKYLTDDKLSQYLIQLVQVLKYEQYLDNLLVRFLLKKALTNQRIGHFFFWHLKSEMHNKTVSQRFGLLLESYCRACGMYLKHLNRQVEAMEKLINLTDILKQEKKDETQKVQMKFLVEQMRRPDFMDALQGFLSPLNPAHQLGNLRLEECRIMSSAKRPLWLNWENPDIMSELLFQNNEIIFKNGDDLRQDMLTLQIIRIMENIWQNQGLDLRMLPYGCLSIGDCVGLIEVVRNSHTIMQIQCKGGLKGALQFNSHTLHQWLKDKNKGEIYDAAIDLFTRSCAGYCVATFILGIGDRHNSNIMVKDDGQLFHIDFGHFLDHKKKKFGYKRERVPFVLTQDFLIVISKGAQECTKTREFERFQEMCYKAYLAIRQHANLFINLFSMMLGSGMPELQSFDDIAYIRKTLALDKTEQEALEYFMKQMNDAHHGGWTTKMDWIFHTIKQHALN
T2 sequence (P27986 whole entry partner): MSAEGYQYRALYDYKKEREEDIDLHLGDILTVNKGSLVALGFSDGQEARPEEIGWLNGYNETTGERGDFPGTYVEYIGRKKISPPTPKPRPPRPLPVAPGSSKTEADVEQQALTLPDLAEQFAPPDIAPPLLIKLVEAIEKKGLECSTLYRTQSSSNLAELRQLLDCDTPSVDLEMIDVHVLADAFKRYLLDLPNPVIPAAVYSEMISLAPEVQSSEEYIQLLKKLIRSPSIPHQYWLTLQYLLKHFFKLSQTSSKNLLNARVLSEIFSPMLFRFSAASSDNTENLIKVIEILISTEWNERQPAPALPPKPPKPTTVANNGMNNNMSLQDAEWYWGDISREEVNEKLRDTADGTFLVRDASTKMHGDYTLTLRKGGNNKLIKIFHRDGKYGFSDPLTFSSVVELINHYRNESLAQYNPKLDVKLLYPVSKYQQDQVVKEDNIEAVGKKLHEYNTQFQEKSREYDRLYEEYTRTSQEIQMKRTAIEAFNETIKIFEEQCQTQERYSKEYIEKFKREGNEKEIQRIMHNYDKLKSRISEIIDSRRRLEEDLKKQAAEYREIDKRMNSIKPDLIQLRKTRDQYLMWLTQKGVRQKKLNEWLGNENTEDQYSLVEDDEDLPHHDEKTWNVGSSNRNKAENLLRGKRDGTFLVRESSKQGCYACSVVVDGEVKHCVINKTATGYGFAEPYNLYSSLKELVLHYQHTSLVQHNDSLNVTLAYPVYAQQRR
Nature of the experiment: Biochemical assay using 200 μM ATP, Alpha.

The target in experiment [2] is T1, PI3Kβ. Nature of the experiment: Biochemical assay using 200 μM ATP, Beta.
Description: (§2) PI3Kδ catalyzes a phosphotransfer from γ-[^32P]ATP to PIP2/PS liposomes at the D3′ position of the PIP2 lipid inositol ring. This reaction is MgCl2 dependent and is quenched in high molarity potassium phosphate buffer pH 8.0 containing 30 mM EDTA. […] The reaction products (and all unlabelled products) are transferred to a 96-well, prewetted PVDF filter plate, filtered, and washed in high molarity potassium phosphate. Scintillant is added to the dried wells and the incorporated radioactivity is quantitated.
(§3) This dilution established a final concentration of 200 μM ATP in the reaction volume. The reaction was stopped with 150 μL quench buffer (1.0 M potassium phosphate pH 8.0, 30 mM EDTA). A portion of the quenched solution (180 μL) was then transferred to a PVDF filter plate (Millipore # MAIP NOB prewetted with sequential 200 μL washes of 100% methanol, water, and finally 1.0 M potassium phosphate pH 8.0 wash buffer).
(§4) The PVDF filter plate was aspirated under moderate vacuum (2-5 mm Hg), washed with 5×200 μL of wash buffer, and then dried by aspiration. The filter was subsequently blotted, allowed to air dry completely, and inserted into a Wallac counting cassette with 50 μL of Ecoscint scintillation cocktail added per well.
(§5) Subsequent selectivity assays were done similarly using the same 3× substrate stocks except they contained 0.05 mCi/mL γ[^32P]ATP and 3 mM PIP2. Subsequent selectivity assays also used the same 3× enzyme stocks, except they now contained 3 nM of any given PI3K isoform.
(§6) For all selectivity assays, the test compounds were weighed out and dissolved into 10-50 mM stocks in 100% DMSO (depending on their respective solubilities) and stored at −20° C. […] From these dilutions, 20 μL was added into the assay wells alongside water blanks used for the enzyme (positive) control and the no enzyme (background) control.
(§7) This selectivity protocol is identical to that described above, except the 3× stock ATP concentration was 600 μM.
The next experiment addresses T3, PI3Kγ (Homo sapiens, UniProt P48736).
T3 construct: His tag (pFastbac HTb vector) (N); FLAG (N); made in house; host or cells: Sf21 insect cells (baculovirus)
In words: Biochemical assay using 200 μM ATP, Gamma.

The test system of experiment [3] is human neutrophils. Nature of the experiment: Elastase exocytosis from neutrophils (fMLP-induced). The format is cell-based. The following applies: for EC50: neutrophil (PMN) elastase release. In outline:
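Human blood neutrophils (Ficoll-Hypaque) treated with compound or DMSO, then stimulated 90 min at 37 °C with 1 μM fMLP plus 0.01 mg/mL cytochalasin B, 1.0 μM NaN3 and 5 μg/mL L-methionine. Supernatant elastase read at 410 nm over 2 h on MeO-suc-AAPV-pNA, normalized to uninhibited; EC50 in μM.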

Experiment [4] has as its system human neutrophils. In words: fMLP-induced human neutrophil migration. The format is cell-based. How it is done: Neutrophils have the intrinsic capacity to migrate through tissues, and are one of the first cell types to arrive at the sites of inflammation or tissue injury. The effect of D-000 on neutrophil migration towards a concentration gradient of fMLP was measured. The day before the migration assays were performed, 6-well plates were coated with recombinant ICAM-1/Fc fusion protein (Van der Vieren et al., Immunity, 3:683-690 (1995)) (25 μg/mL in bicarbonate buffer, pH 9.3) and left overnight at 4° C. After washing, 1% agarose solution, in RPMI-1640 with 0.5% bovine serum albumin (BSA), was added to wells with or without an inhibitor, and plates were placed into a refrigerator before punching holes in the gelled agarose to create plaques (1 central hole surrounded by 6 peripheral ones per well).
Human neutrophils were obtained as described above, and resuspended in RPMI medium supplemented with 0.5% BSA at 5×10^6 cells/mL. After combining equal volumes of neutrophil suspension and medium (either with DMSO or a serial dilution of the test compound in DMSO), neutrophils were aliquoted into the peripheral holes, while the central hole received fMLP (5 μM). Plates were incubated at 37° C. in the presence of 5% CO2 for 4 hr, followed by termination of migration by the addition of 1% glutaraldehyde solution in D-PBS. After removing the agarose layer, wells were washed with distilled water and dried.
Analysis of neutrophil migration was conducted on a Nikon DIAPHOT® inverted microscope (1× objective) video workstation using the NIH 1.61 program. Using Microsoft Excel and Table Curve 4 (SSPS Inc., Chicago Ill.) programs, a migration index was obtained for each of the studied conditions. Migration index was defined as the area under a curve representing number of migrated neutrophils versus the net distance of migration per cell.
Using the methods described in Examples 3-5, above, compounds of the invention were tested for inhibitory activity and potency in assays of stimulated B and T cell proliferation, neutrophil (PMN) migration, and neutrophil (PMN) elastase release. In Table 4, the values shown are effective concentrations of the compound (EC50; μM). Where no value is given, no assay was performed.

The next experiment concerns T cell proliferation. Nature of the experiment: Stimulated T cell proliferation (Mouse TCE Stim, Table 4). The format is cell-based. As to conditions: stimulated T cell proliferation, read-out: Mouse TCE Stim (EC50).
Experiment [5] concerns the target T4, PI3Kδ (Homo sapiens, UniProt O00329, S253N). Nature of the experiment: Biochemical assay using 200 μM ATP, Delta.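 Further: radiometric filter-binding assay: PI3Kδ transfers ³²P from γ-[³²P]ATP onto PIP2/PS liposomes, counted by scintillation, enzyme-only wells as positive control, no-enzyme wells as background.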
Experiment [6] concerns the target T4, PI3Kδ. In words: Biochemical assay of PI3K potency and selectivity using 20 μM ATP, Delta. Also on record: His tag (pFastbac HTb vector) (N); FLAG; made in house; host or cells: Sf21 insect cells (baculovirus). In outline:
as §1

Where [7] appears, read: neutrophil (PMN) migration, read-out: Human PMN Migration (EC50).
Setting [8] is: 20 μM ATP, read-out: Delta IC50.

T1 sequence (P42338 whole entry): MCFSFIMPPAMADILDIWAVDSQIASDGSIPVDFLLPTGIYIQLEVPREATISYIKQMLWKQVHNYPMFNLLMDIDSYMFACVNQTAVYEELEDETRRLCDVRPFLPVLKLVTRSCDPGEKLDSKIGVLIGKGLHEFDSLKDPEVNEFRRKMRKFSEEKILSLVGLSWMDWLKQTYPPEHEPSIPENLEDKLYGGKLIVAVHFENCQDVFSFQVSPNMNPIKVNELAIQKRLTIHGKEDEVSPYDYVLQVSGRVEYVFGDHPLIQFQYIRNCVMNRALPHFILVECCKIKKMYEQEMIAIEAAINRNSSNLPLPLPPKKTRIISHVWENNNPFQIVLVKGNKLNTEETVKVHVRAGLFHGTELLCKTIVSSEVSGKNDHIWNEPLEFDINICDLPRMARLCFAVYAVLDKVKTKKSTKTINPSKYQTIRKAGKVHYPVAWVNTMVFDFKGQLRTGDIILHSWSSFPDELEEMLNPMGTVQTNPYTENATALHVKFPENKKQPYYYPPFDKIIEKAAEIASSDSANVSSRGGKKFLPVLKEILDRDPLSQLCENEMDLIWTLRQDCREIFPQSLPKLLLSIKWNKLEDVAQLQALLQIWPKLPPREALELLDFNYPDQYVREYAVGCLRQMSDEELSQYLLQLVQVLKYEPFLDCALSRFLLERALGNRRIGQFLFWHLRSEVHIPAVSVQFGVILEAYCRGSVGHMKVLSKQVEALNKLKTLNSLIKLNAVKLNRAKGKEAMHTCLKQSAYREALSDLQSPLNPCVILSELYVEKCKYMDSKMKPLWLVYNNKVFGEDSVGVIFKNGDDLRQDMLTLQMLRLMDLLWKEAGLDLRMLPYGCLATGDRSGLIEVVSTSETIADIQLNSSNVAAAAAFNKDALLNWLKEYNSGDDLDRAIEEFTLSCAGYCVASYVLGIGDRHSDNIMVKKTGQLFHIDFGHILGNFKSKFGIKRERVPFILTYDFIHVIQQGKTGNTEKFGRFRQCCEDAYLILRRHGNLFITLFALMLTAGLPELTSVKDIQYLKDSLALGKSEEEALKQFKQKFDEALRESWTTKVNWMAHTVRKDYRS
T1 sequence (P27986 whole entry partner): as the sequence (P27986 whole entry partner) above
T3 sequence (P48736 whole entry): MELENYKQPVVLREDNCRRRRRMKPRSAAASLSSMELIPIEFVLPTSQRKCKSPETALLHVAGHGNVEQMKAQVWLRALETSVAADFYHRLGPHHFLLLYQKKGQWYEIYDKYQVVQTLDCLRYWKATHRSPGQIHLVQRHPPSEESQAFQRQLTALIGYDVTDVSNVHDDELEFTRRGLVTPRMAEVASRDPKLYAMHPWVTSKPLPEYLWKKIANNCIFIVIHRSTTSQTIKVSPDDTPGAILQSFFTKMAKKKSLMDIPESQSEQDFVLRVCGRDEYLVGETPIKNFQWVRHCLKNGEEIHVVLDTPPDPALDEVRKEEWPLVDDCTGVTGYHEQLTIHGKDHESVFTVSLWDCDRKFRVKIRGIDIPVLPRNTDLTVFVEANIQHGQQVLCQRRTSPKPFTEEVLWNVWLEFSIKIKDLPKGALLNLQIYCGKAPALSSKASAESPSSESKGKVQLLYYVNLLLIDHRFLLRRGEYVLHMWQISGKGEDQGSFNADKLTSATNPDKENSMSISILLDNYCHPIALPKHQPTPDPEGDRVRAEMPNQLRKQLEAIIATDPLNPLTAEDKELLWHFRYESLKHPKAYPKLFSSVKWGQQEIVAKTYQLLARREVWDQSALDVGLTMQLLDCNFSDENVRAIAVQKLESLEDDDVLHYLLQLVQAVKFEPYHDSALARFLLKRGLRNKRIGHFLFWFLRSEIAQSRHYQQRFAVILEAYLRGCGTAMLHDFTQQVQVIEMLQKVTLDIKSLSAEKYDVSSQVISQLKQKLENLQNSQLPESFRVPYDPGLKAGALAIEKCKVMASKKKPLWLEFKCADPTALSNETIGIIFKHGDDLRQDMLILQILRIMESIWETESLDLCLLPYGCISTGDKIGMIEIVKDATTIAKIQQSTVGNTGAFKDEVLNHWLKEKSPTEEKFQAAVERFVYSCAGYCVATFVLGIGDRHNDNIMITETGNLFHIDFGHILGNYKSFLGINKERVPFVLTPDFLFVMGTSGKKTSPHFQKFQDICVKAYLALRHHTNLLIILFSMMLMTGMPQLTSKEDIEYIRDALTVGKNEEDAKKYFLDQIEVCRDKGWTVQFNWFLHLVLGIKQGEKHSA
T4 sequence (O00329 whole entry S253N): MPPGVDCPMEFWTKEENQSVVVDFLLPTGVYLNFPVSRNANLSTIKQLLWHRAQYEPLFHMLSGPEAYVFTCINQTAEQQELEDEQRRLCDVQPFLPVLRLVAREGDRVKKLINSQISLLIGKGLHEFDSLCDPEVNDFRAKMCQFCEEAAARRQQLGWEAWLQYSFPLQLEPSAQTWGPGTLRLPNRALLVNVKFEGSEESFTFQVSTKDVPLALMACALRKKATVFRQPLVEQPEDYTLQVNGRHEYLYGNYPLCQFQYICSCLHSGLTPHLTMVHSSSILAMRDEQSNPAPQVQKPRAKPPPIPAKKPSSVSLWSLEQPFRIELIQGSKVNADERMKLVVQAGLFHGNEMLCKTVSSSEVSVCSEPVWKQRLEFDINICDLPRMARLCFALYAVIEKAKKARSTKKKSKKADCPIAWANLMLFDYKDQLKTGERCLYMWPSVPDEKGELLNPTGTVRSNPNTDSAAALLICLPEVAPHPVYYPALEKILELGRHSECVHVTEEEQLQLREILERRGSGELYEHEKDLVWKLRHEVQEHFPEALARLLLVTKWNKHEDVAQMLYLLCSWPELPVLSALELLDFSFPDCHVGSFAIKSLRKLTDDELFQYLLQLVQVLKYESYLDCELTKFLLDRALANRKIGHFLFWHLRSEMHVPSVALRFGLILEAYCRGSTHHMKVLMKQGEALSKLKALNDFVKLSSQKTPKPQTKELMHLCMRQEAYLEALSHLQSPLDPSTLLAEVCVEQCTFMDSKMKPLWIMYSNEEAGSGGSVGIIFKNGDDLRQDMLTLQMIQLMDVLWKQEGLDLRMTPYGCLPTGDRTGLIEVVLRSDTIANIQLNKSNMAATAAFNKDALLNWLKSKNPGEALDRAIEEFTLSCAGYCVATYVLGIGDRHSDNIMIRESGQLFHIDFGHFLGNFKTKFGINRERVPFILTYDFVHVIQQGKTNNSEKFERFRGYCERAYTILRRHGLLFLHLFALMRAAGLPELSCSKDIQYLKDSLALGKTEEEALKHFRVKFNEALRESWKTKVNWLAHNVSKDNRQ
T4 sequence (P27986 whole entry partner): as the sequence (P27986 whole entry partner) above
Description for PI3Kα: as §2, §3, §4, §5, §6, §7

For `O=c1c2c(F)cccc2nc(CSc2ncnc3[nH]cnc23)n1-c1ccccc1Cl` [Compound D-015, 3-(2-Chlorophenyl)-5-fluoro-2-(9H-purin-6-ylsulfanylmethyl)-3H-quinazolin-4-one], the “Beta/Delta Ratio” value at PI3Kβ [1] is reported as over 480; at PI3Kβ [2] it was 154. Moreover, on PI3Kβ [1], the remaining activity at 100 µM was 69%. For the same compound, the “Alpha/Delta Ratio” value on PI3Kα stood at 180. The “Gamma/Delta Ratio” value at PI3Kγ is recorded as 160. Also, the figures for the EC50 in the experiment on human neutrophils [3], with human neutrophils [4] (setting [7]) and in the experiment with T cell proliferation were 1300 ± 400 nM, 2000 nM and 1800 nM, respectively. In addition, the IC50 against PI3Kδ [5] was determined as 1100 ± 500 nM; on PI3Kδ [6] (setting [8]), 210 nM.
`O=c1c2ccccc2nc(CSc2ncnc3[nH]ncc23)n1-c1ccccc1Cl` [Compound D-999, 3-(2-Chlorophenyl)-2-(1H-pyrazolo[3,4-d]pyrimidin-4-ylsulfanylmethyl)-3H-quinazolin-4-one, reference compound]: the “Beta/Delta Ratio” value is on record as 2.1 at PI3Kβ [1] and 2 at PI3Kβ [2]. For the same compound, the remaining activity at 100 µM on PI3Kβ [1] came out at 71%. Moreover, the “Alpha/Delta Ratio” value on PI3Kα worked out at 2. Moreover, the “Gamma/Delta Ratio” value at PI3Kγ stood at 1. Moreover, the IC50 was found to be 90000 nM against PI3Kγ, 75000 nM at PI3Kδ [5] and 47000 nM on PI3Kδ [6] (setting [8]). Further, the EC50 with human neutrophils [3] was over 20000 nM; in the experiment on human neutrophils [4] (setting [7]), 1000 nM; in the experiment with T cell proliferation, 5900 nM.
For `O=c1c2ccccc2nc(CSc2ncnc3[nH]cnc23)n1-c1ccccc1Cl` [Compound D-000, 3-(2-chlorophenyl)-2-(9H-purin-6-ylsulfanylmethyl)-3H-quinazolin-4-one], the results for the “Beta/Delta Ratio” value at PI3Kβ [1] and at PI3Kβ [2] were over 302 and 84, respectively. Further, the IC50 at PI3Kβ [1] (Example 2 assay conditions, limit of 100 μM compound, read-out: IC50, β isoform of PI3K (FIG. 1)) is over 100000 nM; on PI3Kγ, 35000 ± 35000 nM; in the experiment with human neutrophils [3] (Neutrophil, 1.5 h, 1 μM fMLP, 90 min, FIG. 4, read-out: Concentration of half-maximal inhibition of fMLP-induced elastase exocytosis), 2000 to 3000 nM; against PI3Kδ [5], 2000 ± 1000 nM; at PI3Kδ [6] (setting [8]) it was 330 nM; on PI3Kδ [6] (Example 2 assay conditions, read-out: IC50, δ isoform of PI3K (FIG. 1)) it was about 300 nM. On PI3Kβ [1], the remaining activity at 100 µM turned out to be 74%. Further, at PI3Kα, the “Alpha/Delta Ratio” value was found to be 91. The “Gamma/Delta Ratio” value on PI3Kγ turned out to be 18. Further, the EC50 was 2200 ± 2000 nM in the experiment with human neutrophils [3]; about 1000 nM with human neutrophils [4] (Neutrophil, fMLP (5 μM) gradient, 4 hr, FIG. 5, read-out: EC50 for inhibition of neutrophil migration); 1000 to 5000 nM in the experiment on human neutrophils [4] (setting [7]); 5500 ± 4000 nM with T cell proliferation.
As for `O=c1c2c(Cl)cccc2nc(CSc2ncnc3[nH]cnc23)n1-c1ccccc1Cl` [Compound D-025, 5-Chloro-3-(2-chlorophenyl)-2-(9H-purin-6-ylsulfanylmethyl)-3H-quinazolin-4-one], the “Beta/Delta Ratio” value on PI3Kβ [1] is recorded as over 909. Further, the remaining activity at 100 µM at PI3Kβ [1] came to 61%. In addition, the “Alpha/Delta Ratio” value at PI3Kα is 556. For the same compound, the “Gamma/Delta Ratio” value at PI3Kγ worked out at 24. For the same compound, the IC50 against PI3Kγ was 7800 ± 3000 nM; on PI3Kδ [5], 320 ± 300 nM; on PI3Kδ [6] (setting [8]), 110 nM. For the same compound, the EC50 in the experiment on human neutrophils [3] was determined as 300 ± 200 nM; in the experiment on human neutrophils [4] (setting [7]), 300 ± 300 nM; in the experiment with T cell proliferation, 4400 ± 600 nM.

Usually remaining activity stands for the signal under treatment as a percentage of the control signal.
